Laboratory results published in patent US12655116B2, “Substituted isophthalic acid diamides” (Bayer Aktiengesellschaft, priority 2020, dated 2026).

What was measured:
[1] = test system: AVEFA; assay: Post-emergence herbicidal action against AVEFA; format: in vivo, Avena fatua; conditions: Avena fatua, 504 h, 20 g/ha, visual assessment about 3 weeks after treatment, 100% = plants have died, 0% = like control plants
How it was run: (§1)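 Spray, one-leaf stage: WP or EC compound in water, 600–800 l/ha, 0.2% wetting agent. Plants held about 3 weeks in the greenhouse, then visually rated in percent of kill compared with untreated controls.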

[2] = test system: SETVI; assay: Post-emergence herbicidal action against SETVI; format: in vivo, Setaria viridis; conditions: Setaria viridis, 504 h
How it was run: as §1

[3] = test system: VIOTR; assay: Pre-emergence herbicidal action against VIOTR; format: in vivo, Viola tricolor; conditions: Viola tricolor, 504 h; for pest or weed control at 80 g/ha: dosage 80 g/ha
How it was run: (§2)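 Pre-emergence soil-surface spray of formulated compound (WP or EC; 600 to 800 l/ha; 0.2% wetting agent) over seeds sown in sandy loam. After 3 weeks under greenhouse conditions, damage is estimated visually in percent against untreated plants.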

[4] = test system: ABUTH; assay: Post-emergence herbicidal action against ABUTH; format: in vivo, Abutilon theophrasti; conditions: Abutilon theophrasti, 504 h, visual assessment about 3 weeks after treatment vs untreated controls; for pest or weed control at 5 g/ha: dosage 5 g/ha; for pest or weed control at 20 g/ha: dosage 20 g/ha
How it was run: as §1

[5] = test system: DIGSA; assay: Post-emergence herbicidal action against DIGSA; format: in vivo, Digitaria sanguinalis; conditions: Digitaria sanguinalis, 504 h
How it was run: as §1

[6] = test system: MATIN; assay: Pre-emergence herbicidal action against MATIN; format: in vivo, Matricaria inodora; conditions: Tripleurospermum inodorum, 504 h; for pest or weed control at 20 g/ha: dosage 20 g/ha; for pest or weed control at 80 g/ha: dosage 80 g/ha
How it was run: as §2

[7] = test system: ALOMY; assay: Post-emergence herbicidal action against ALOMY; format: in vivo, Alopecurus myosuroides; conditions: Alopecurus myosuroides, 504 h, dosage 20 g/ha, visual assessment about 3 weeks after treatment vs untreated controls
How it was run: as §1

[8] = test system: LOLRI; assay: Pre-emergence herbicidal action against LOLRI; format: in vivo, Lolium rigidum; conditions: Lolium rigidum, 504 h, 80 g/ha
How it was run: as §2

[9] = test system: ECHCG; assay: Post-emergence herbicidal action against ECHCG; format: in vivo, Echinochloa crus-galli; conditions: Echinochloa crus-galli, 504 h
How it was run: as §1

[10] = test system: AMARE; assay: Post-emergence herbicidal action against AMARE; format: in vivo, Amaranthus retroflexus; conditions: Amaranthus retroflexus, 504 h, 20 g/ha, visual assessment about 3 weeks after treatment, 100% = plants have died, 0% = like control plants
How it was run: as §1

[11] = test system: PHBPU; assay: Pre-emergence herbicidal action against PHBPU; format: in vivo, Pharbitis purpurea; conditions: Ipomoea purpurea, 504 h, dosage 80 g/ha
How it was run: as §2

[12] = test system: PHBPU; assay: Post-emergence herbicidal action against PHBPU; format: in vivo, Pharbitis purpurea; conditions: Ipomoea purpurea, 504 h; for pest or weed control at 20 g/ha: dosage 20 g/ha
How it was run: as §1

[13] = test system: AMARE; assay: Pre-emergence herbicidal action against AMARE; format: in vivo, Amaranthus retroflexus; conditions: Amaranthus retroflexus, 504 h, scored visually after 3 weeks vs untreated controls, 100% = plants have died, 0% = like control plants
How it was run: as §2

[14] = test system: ABUTH; assay: Pre-emergence herbicidal action against ABUTH; format: in vivo, Abutilon theophrasti; conditions: Abutilon theophrasti, 504 h; for pest or weed control at 80 g/ha: scored visually after 3 weeks vs untreated controls (100% = plants have died, 0% = like control plants)
How it was run: as §2

[15] = test system: ECHCG; assay: Pre-emergence herbicidal action against ECHCG; format: in vivo, Echinochloa crus-galli; conditions: Echinochloa crus-galli, 504 h
How it was run: as §2

[16] = test system: DIGSA; assay: Pre-emergence herbicidal action against DIGSA; format: in vivo, Digitaria sanguinalis; conditions: Digitaria sanguinalis, 504 h; for pest or weed control at 80 g/ha: dosage 80 g/ha
How it was run: as §2

[17] = test system: AVEFA; assay: Pre-emergence herbicidal action against AVEFA; format: in vivo, Avena fatua; conditions: Avena fatua, 504 h, pre-emergence
How it was run: as §2

[18] = test system: VIOTR; assay: Post-emergence herbicidal action against VIOTR; format: in vivo, Viola tricolor; conditions: Viola tricolor, 504 h
How it was run: as §1

[19] = test system: VERPE; assay: Post-emergence herbicidal action against VERPE; format: in vivo, Veronica persica; conditions: Veronica persica, 504 h, 20 g/ha
How it was run: as §1

[20] = test system: ALOMY; assay: Pre-emergence herbicidal action against ALOMY; format: in vivo, Alopecurus myosuroides; conditions: Alopecurus myosuroides, 504 h, pre-emergence; for pest or weed control at 80 g/ha: scored visually after 3 weeks vs untreated controls (100% = plants have died, 0% = like control plants)
How it was run: as §2

[21] = test system: SETVI; assay: Pre-emergence herbicidal action against SETVI; format: in vivo, Setaria viridis; conditions: Setaria viridis, 504 h; for pest or weed control at 80 g/ha: dosage 80 g/ha
How it was run: as §2

[22] = test system: POLCO; assay: Pre-emergence herbicidal action against POLCO; format: in vivo, Polygonum convolvulus; conditions: Fallopia convolvulus, 504 h, dosage 80 g/ha
How it was run: as §2

[23] = test system: VERPE; assay: Pre-emergence herbicidal action against VERPE; format: in vivo, Veronica persica; conditions: Veronica persica, 504 h, dosage 80 g/ha
How it was run: as §2

[24] = 20 g/ha, scored visually after 3 weeks, 100% = plants have died, 0% = like control plants

SMILES	pest or weed control at 20 g/ha [1] [%]	pest or weed control at 80 g/ha [3] [%]	pest or weed control at 5 g/ha [4] [%]	pest or weed control at 20 g/ha [4] [%]	pest or weed control at 5 g/ha [5] [%]	pest or weed control at 20 g/ha [5] [%]	pest or weed control at 20 g/ha [6] [%]	pest or weed control at 80 g/ha [6] [%]	pest or weed control at 80 g/ha [8] [%]	pest or weed control at 20 g/ha [10] [%]	pest or weed control at 80 g/ha [11] [%]	pest or weed control at 20 g/ha [12] [%]	pest or weed control at 20 g/ha [13] [%]	pest or weed control at 80 g/ha [13] [%]	pest or weed control at 80 g/ha [14] [%]	pest or weed control at 20 g/ha [15] [%]	pest or weed control at 80 g/ha [15] [%]	pest or weed control at 80 g/ha [16] [%]	pest or weed control at 80 g/ha [17] [%]	pest or weed control at 20 g/ha [18] [%]	other results
CNC(=O)c1c(C(F)F)ccc(C(=O)Nc2nnnn2C)c1Br [Example 1-225]	80	100	80	80	90	90	90	100	80	100	100	80	100	100	80	90	100	90	80	80	pest or weed control at 5 g/ha ([2]; dosage 5 g/ha): 90%; pest or weed control at 20 g/ha ([2]; dosage 20 g/ha): 100%; pest or weed control at 20 g/ha [7]: 90%; pest or weed control at 5 g/ha ([9]; dosage 5 g/ha): 90%; pest or weed control at 20 g/ha ([9]; dosage 20 g/ha): 100%; pest or weed control at 20 g/ha [17, 24]: 80%; pest or weed control at 20 g/ha [19]: 90%; pest or weed control at 80 g/ha [20]: 100%; pest or weed control at 20 g/ha ([21]; dosage 20 g/ha): 90%; pest or weed control at 80 g/ha [21]: 100%; pest or weed control at 80 g/ha [22]: 90%; pest or weed control at 80 g/ha [23]: 80%
Cn1nnnc1NC(=O)c1ccc(C(F)F)c(C(=O)NC2CC2)c1Br [Example 1-227]	80	100	100	100	100	100	80	100	90	100	80	90	100	100	100	80	90	100	90	100	pest or weed control at 20 g/ha ([3]; dosage 20 g/ha): 100%; pest or weed control at 5 g/ha ([12]; dosage 5 g/ha): 80%; pest or weed control at 20 g/ha ([14]; dosage 20 g/ha, scored visually after 3 weeks vs untreated controls, 100% = plants have died, 0% = like control plants, read-out: Pre-emergence action against ABUTH (herbicidal activity in percent)): 100%; pest or weed control at 20 g/ha ([16]; dosage 20 g/ha): 100%; pest or weed control at 5 g/ha ([18]; 5 g/ha): 100%; pest or weed control at 20 g/ha [19]: 80%; pest or weed control at 80 g/ha [20]: 100%; pest or weed control at 20 g/ha [20, 24]: 80%; pest or weed control at 80 g/ha [21]: 100%; pest or weed control at 80 g/ha [22]: 90%; pest or weed control at 80 g/ha [23]: 100%
